The values that follow come from patent US9192647B2, “Method for reversing recent-onset type 1 diabetes (T1D) by administering substance P (sP)” (priority 2013, dated 2015).

Entries after “also recorded” stand apart in the source; their conditions may differ. Where two headings read alike, the source gives them in different places.

Data set [1] relates to pancreas. As to the kind of experiment: large animal study of pancreatic sP injection via the celiac artery. The data set is classed as in vivo, dog. The method, then:
A large animal study in dogs has recently been completed, seeking evidence for sP-induced pancreas toxicity following pancreatic injection of sP via the celiac artery. […] The injections were conducted by the Sick Kids' clinical imaging team. Since this VanilloidGenetics-sponsored study is unlikely to be published by itself, excerpt imaging data are provided in the Protocol Addendum, showing the pancreas-selective, rapidly transient (˜7 min) sP effect as measured with a co-injected, inert blue dye marker. The short-lived, physiological sP responses (hyperemia→pancreas→selective hyperperfusion and extravasation→normal pancreas appearance) illustrate the core effects expected to be duplicated in T1D patients.
A large animal study of pancreatic sP injection in dogs, using modern pancreatitis diagnostics is currently being conducted (Mansfield et al., J. Vet. Diagn. Invest. 23, 691-697 (2011)) and histopathology for the detection of possible pancreatitis lesions. Data are expected to be complete within about two weeks of this writing, in time for the anticipated Pre-CTA meeting. Dogs are a rational choice of large animal experimental model, since Dogs spontaneously develop pancreatitis, have successfully been used in studies of experimental pancreatitis and well tested diagnostics are available (Trivedi et al., J. Vet. Intern. Med. 25, 1241-1247 (2011)).

Data set [2] has as its system pancreas. As to the kind of experiment: pancreas pathology / toxicity after intra-arterial sP injection in rodents. It is filed as in vivo, mouse. The text has this:
Both islets are surrounded by normal exocrine pancreas tissue without any lesions typical for pancreatitis.
For disease induction, the standard experimental pancreatitis model employs multiple high dose injections of the toxic secretagogue caerulein (Koh et al., J. Cell. Mol. Med. 15, 2139-2149 (2011)).

For data set [3] the following is noted: earlier and current trials, literature and trials registry, cited from earlier work.
The conditions of data set [4]: cited from earlier work; for tissue half-life: in vivo.
Data set [5] has as its system pancreas. The conditions noted are these: intra-arterial injection, recent-onset diabetic mice, dose range 0.01-250 nmol/kg; cited from earlier work.

`CSCC[C@H](NC(=O)[C@H](CC(C)C)NC(=O)CNC(=O)[C@H](Cc1ccccc1)NC(=O)[C@H](Cc1ccccc1)NC(=O)[C@H](CCC(N)=O)NC(=O)[C@H](CCC(N)=O)NC(=O)[C@@H]1CCCN1C(=O)[C@H](CCCCN)NC(=O)[C@@H]1CCCN1C(=O)[C@@H](N)CCCN=C(N)N)C(N)=O` [sP, substance P]: the “tolerability in canine studies” value with pancreas [1] (10, 50, 100 or 250 nmol/kg BW) is on record as “well tolerated”. Besides, in the data set on pancreas [1] (celiac artery injection, study-relevant dose range, blood tests (>1200 assays) and histopathology), the “sP-induced pancreas toxicity in dogs” value is listed as “not pancreas toxic; also recorded: No drug-induced toxicity was found”. In addition, the “adverse events of sP celiac injections” value in the data set with pancreas [1] (entire canine study) is given as “without adverse events”. Besides, in the data set on pancreas [2] (10, 50, 100 or 250 nmol/kg BW), the “tolerability in rodent studies” value was “well tolerated”. In addition, the “tissue damage or pancreatitis-like disease” value in the data set with pancreas [2] (sP injection without caerulein) is recorded as “does not cause tissue damage or pancreatitis-like disease”. Further, in the data set with pancreas [2] (without caerulein pretreatment), the “sP pancreas toxicity in rodents” value is recorded as “has not been observed”. Further, the entries for the “toxicity / adverse events in human clinical sP trials” value in data set [3] and in data set [3] (listed as substance P) were “without sP-attributable adverse events” and “lack of toxicity”, respectively. Also, the vascular half-life time in data set [4] (as low as) was below 30 s; in data set [4] (in some locales), “up to a minute”. The tissue half-life was below 60 s in data set [4] and “a minute or less” in data set [4] (listed as substance P). Moreover, the “time to inactivation in tissue” value in data set [4] (proteolytic degradation and binding to NK1R in tissue) is “within seconds”. Also, in the data set on pancreas [5], the “pancreas pathology consistent with pancreatitis” value is given as “has not been observed”.
